Laboratory results taken from BindingDB's records for doi:10.1016/j.bmcl.2009.05.029 (Institute, 2009).

Assay: Inhibition of EphB2

EC50 [nM]	SMILES
40	Cc1cn(-c2cc(NC(=O)c3ccc(C)c(NC(=O)c4ccno4)c3)cc(C(F)(F)F)c2)cn1 [N-(2-methyl-5-(3-(4-methyl-1H-imidazol-1-yl)-5-(trifluoromethyl)phenylcarbamoyl)phenyl)isoxazole-5-carboxamide]
40	Cc1ccc(C(=O)Nc2cccc(C(F)(F)F)c2)cc1Nc1cncc(C(N)=O)c1 [5-[(2-methyl-5-{[3-(trifluoromethyl)phenyl]carbamoyl}phenyl)amino]pyridine-3-carboxamide]
